Reference: paper PMC4245237, “Searching the Cytochrome P450 Enzymes for the Metabolism of Meranzin Hydrate: A Prospective Antidepressant Originating from Chaihu-Shugan-San” (PLoS ONE, 2014)
Where “and” joins values, the source holds several entries; their conditions need not be identical. Identical values can stand only once. Entries after “also recorded” stand apart in the source; their conditions may differ. Counter-ions that a name gives are not always drawn. Like-named read-outs stand apart in the source and are kept apart here.

Key:
CYP2E1 = CYP2E1 (Homo sapiens, UniProt P05181); conditions: cited from earlier work
CYP2E1, sequence (P05181 whole entry): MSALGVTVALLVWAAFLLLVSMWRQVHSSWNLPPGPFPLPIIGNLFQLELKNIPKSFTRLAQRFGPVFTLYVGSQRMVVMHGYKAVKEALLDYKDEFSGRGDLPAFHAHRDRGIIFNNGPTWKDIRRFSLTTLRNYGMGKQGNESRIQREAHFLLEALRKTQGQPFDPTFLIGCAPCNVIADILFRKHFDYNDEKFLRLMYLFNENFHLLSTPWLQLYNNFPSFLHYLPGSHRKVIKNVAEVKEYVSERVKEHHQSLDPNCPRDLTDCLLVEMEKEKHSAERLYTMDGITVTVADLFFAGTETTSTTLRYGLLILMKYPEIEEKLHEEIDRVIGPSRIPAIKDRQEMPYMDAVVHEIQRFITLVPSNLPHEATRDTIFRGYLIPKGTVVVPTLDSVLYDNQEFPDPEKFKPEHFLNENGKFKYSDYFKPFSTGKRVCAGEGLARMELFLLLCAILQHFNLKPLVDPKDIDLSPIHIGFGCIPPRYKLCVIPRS

[1] = system: human liver microsomes (HLMs); experiment: Kinetic analysis of MH metabolism in HLMs; format: in vitro ADME; conditions: HLMs 0.5 mg/mL, MH 0.5–100 µM, 30 min, 37°C
CYP2C9 [2] = target: T1, CYP2C9 (Homo sapiens, UniProt P11712); experiment: Effect of specific inhibitor sulfaphenazole on MH metabolism in HLMs; format: in vitro ADME; conditions: MH 10 µM, in the presence of SUL 1 µM
T1 construct: tissue Cypex Ltd. (U.K.); host or cells: pooled human liver microsomes, ten donors
T1 sequence (P11712 whole entry): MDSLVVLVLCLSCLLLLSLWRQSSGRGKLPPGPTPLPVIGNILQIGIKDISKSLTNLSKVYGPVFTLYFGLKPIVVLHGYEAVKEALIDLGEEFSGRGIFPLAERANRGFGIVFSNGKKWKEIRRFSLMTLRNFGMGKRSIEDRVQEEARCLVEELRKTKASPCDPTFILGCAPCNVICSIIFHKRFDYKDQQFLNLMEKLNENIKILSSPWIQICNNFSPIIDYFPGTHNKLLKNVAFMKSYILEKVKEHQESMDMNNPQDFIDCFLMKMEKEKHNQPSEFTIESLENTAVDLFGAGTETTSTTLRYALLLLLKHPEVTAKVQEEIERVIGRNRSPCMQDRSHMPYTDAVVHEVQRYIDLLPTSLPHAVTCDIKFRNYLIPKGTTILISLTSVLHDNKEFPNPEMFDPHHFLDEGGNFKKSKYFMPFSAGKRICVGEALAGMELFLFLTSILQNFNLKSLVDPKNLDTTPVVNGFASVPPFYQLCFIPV
Protocol: (§1) The samples were vortexed for 5 min.
(§2) P<0.05 denoted significance in all cases.

CYP2D6 [3] = target: T2, CYP2D6 (Homo sapiens, UniProt P10635); experiment: Effect of specific inhibitor quinidine on MH metabolism in HLMs; format: in vitro ADME; conditions: MH 10 µM, in the presence of QUI 1 µM
T2 construct: tissue Cypex Ltd. (U.K.); host or cells: pooled human liver microsomes, ten donors
T2 sequence (P10635 whole entry): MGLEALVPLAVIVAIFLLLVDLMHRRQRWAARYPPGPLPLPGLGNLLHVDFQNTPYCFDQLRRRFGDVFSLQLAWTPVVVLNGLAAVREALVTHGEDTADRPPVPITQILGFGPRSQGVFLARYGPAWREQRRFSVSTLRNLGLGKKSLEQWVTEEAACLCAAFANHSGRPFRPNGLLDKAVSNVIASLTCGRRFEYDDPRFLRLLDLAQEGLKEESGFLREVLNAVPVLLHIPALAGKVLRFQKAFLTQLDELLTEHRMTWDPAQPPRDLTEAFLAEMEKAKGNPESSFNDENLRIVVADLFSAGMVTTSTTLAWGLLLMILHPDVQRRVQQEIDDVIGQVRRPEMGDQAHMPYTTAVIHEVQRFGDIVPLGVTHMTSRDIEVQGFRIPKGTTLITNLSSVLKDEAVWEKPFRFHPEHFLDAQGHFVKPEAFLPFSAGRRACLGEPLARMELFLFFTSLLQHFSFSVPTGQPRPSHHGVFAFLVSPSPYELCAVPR
Protocol: as §1, §2

CYP3A4 [4] = target: T3, CYP3A4 (Homo sapiens, UniProt P08684); experiment: Effect of specific inhibitor ketoconazole on MH metabolism in HLMs; format: in vitro ADME; conditions: MH 10 µM, in the presence of KET 1 µM
T3 construct: tissue Cypex Ltd. (U.K.); host or cells: pooled human liver microsomes, ten donors
T3 sequence (P08684 whole entry): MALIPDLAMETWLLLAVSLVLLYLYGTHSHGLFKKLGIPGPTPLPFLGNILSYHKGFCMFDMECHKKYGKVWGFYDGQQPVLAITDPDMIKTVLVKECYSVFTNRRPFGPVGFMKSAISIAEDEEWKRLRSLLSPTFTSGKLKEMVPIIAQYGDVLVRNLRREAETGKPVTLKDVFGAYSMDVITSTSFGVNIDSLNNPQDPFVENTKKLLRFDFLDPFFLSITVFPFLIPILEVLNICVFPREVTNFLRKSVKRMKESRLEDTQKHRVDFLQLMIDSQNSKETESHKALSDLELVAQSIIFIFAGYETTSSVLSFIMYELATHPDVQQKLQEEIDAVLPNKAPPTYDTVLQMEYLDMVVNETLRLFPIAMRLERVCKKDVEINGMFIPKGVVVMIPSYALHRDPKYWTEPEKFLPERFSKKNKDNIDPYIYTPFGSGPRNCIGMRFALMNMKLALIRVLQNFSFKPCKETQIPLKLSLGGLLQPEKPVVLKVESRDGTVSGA
Protocol: as §1, §2

CYP2C9 [5] = target: T1, CYP2C9; experiment: Inhibition of CYP2C9 (tolbutamide 4-hydroxylation) in HLMs; format: in vitro ADME
Protocol: as §1
(§3) All incubation conditions were the same as mentioned above.
as §2

CYP2D6 [6] = target: T2, CYP2D6; experiment: Inhibition of CYP2D6 (metoprolol α-hydroxylation) in HLMs; format: in vitro ADME
Protocol: as §1, §3, §2

CYP3A4 [7] = target: T3, CYP3A4; experiment: Inhibition of CYP3A4 (midazolam 1-hydroxylation) in HLMs; format: in vitro ADME
Protocol: as §1, §3, §2

[8] = system: longitudinal and circular jejunum muscles; conditions: dose-dependent manner; cited from earlier work
[9] = set-up: method as in PMID 21061180; conditions: rats; cited from earlier work
CYP1A2 [10] = target: T4, CYP1A2 (Homo sapiens, UniProt P05177); experiment: Kinetic analysis of MH metabolism by recombinant CYP1A2; format: in vitro ADME; set-up: purchased Cypex Ltd. (U.K.); conditions: recombinant CYP1A2 10 pmol
T4 sequence (P05177 1-516): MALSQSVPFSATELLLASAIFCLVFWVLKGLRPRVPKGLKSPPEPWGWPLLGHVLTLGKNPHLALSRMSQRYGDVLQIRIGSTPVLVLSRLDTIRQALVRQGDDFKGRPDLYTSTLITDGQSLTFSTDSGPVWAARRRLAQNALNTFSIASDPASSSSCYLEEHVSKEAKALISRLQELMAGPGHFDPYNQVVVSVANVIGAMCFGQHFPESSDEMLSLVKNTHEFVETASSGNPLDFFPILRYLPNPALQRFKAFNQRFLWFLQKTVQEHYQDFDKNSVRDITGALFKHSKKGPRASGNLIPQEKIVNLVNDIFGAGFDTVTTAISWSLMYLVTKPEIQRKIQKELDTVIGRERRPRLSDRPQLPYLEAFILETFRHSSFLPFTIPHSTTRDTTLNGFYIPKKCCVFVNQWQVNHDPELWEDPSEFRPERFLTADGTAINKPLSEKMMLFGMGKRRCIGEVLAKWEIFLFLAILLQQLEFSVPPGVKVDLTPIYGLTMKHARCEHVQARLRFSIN
Protocol: as §1
(§4) Kinetic analysis was performed for MH, and the data generated were used as a guide for selecting the appropriate concentrations of MH in the subsequent inhibition experiments. Thus, the kinetic parameters for the metabolism of MH was determined by incubating increasing concentrations of MH (0.5–100 µM) (without the inhibitor) at 37°C with the HLMs and NADPH under the incubation conditions. The equation of MH reaction velocity (V) in the HLMs or CYP isoforms was expressed as V = (C0–Ct)/T/Cp, where C0 and Ct represented the initial and final concentrations of MH in the incubation solution, respectively. T was the incubation time (min) and Cp was the protein concentration (mg/mL or nmol). All values were expressed as the mean±standard deviation (SD). The mean intrinsic clearance rate (CLint) for the in vitro incubation was estimated using Vmax/Km.
as §2

CYP2C19 [11] = target: T5, CYP2C19 (Homo sapiens, UniProt P33261); experiment: Kinetic analysis of MH metabolism by recombinant CYP2C19; format: in vitro ADME; set-up: purchased Cypex Ltd. (U.K.); conditions: recombinant CYP2C19 10 pmol
T5 sequence (P33261 whole entry): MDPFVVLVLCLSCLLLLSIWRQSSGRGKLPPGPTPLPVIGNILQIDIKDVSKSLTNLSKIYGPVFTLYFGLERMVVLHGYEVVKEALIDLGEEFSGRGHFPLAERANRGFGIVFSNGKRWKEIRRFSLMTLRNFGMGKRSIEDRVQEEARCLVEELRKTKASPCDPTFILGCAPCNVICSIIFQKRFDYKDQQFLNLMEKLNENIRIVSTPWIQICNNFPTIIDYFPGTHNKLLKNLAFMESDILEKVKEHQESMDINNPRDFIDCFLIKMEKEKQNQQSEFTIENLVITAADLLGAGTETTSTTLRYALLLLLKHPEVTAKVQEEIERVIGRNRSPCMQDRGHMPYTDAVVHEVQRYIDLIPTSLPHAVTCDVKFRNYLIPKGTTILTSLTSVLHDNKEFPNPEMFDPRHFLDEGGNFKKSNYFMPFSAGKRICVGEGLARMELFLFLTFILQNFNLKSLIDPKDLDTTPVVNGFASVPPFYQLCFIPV
Protocol: as §1, §4, §2

CYP1A2 [12] = target: T4, CYP1A2; experiment: MCR of MH with recombinant CYP1A2 inhibited by furafylline; format: in vitro ADME; set-up: purchased Cypex Ltd. (U.K.); conditions: furafylline 1 µM
Protocol: as §1
(§5) Figure 3 Effect on the metabolic clearance rate (MCR) of meranzin hydrate (MH) under the inhibition of recombinant CYP1A2 and CYP2C19. […] Each point represents the average of triplicate incubations.

CYP2C19 [13] = target: T5, CYP2C19; experiment: MCR of MH with recombinant CYP2C19 inhibited by ticlopidine; format: in vitro ADME; set-up: purchased Cypex Ltd. (U.K.); conditions: ticlopidine 1 µM
Protocol: as §1, §5

CYP1A2 [14] = target: T4, CYP1A2; experiment: Effect of specific inhibitor furafylline on MH metabolism in HLMs; format: in vitro ADME; set-up: tissue Cypex Ltd. (U.K.); host or cells: pooled human liver microsomes, ten donors; conditions: MH 10 µM, in the presence of FUR 1 µM
Protocol: as §1, §2

CYP2C19 [15] = target: T5, CYP2C19; experiment: Effect of specific inhibitor ticlopidine on MH metabolism in HLMs; format: in vitro ADME; set-up: tissue Cypex Ltd. (U.K.); host or cells: pooled human liver microsomes, ten donors; conditions: MH 10 µM, in the presence of TIC 1 µM
Protocol: as §1, §2

CYP1A2 [16] = target: T4, CYP1A2; experiment: Inhibition of CYP1A2 (phenacetin O-deethylation) in HLMs; format: in vitro ADME; set-up: tissue Cypex Ltd. (U.K.); host or cells: pooled human liver microsomes, ten donors
Protocol: as §1, §3
(§6) Therefore, Dixon plots for the inhibition of CYP1A2 and CYP2C19 were determined by incubating the substrate probe at multiple concentrations with or without the test inhibitor at multiple concentrations with the HLMs and cofactors. The inhibition data obtained from the pilot experiments were used as a guide to generate appropriate probe substrate and test inhibitor concentrations for the determination of the Ki values for each CYP isoform. The isoform-specific probe substrate concentrations used were 3 to 100 µM phenacetin for CYP1A2 and 15 to 120 µM S-mephenytoin for CYP2C19. The MH concentrations used were 0 to 100 µM.
as §2

CYP2C19 [17] = target: T5, CYP2C19; experiment: Inhibition of CYP2C19 (S-Mephenytoin 4-hydroxylation) in HLMs; format: in vitro ADME; set-up: tissue Cypex Ltd. (U.K.); host or cells: pooled human liver microsomes, ten donors
Protocol: as §1, §3, §6, §2

Question: For `CCN(CC)C(=S)S` [DIE, diethyldithiocarbamate], which IC50 (CYP2E1) is on record?
Answer: Its IC50 is 21.3 µM.

Question: With `COc1ccc2ccc(=O)oc2c1C[C@H](O)C(C)(C)O` [MH, Meranzin hydrate] as the molecule, how does the Km [1] read?
Answer: Its Km is 10.3 ± 1.3 µM.

Question: And the “Vmax of MH metabolism” value [1]?
Answer: The value was 99.1±3.3 nmol/mg protein/min.

Question: What about the Km ([1]; listed as Meranzin hydrate) of the same molecule?
Answer: Its Km is 10.3 µM.

Question: What about the “Vmax of MH metabolism” value ([1]; listed as Meranzin hydrate) of the same molecule?
Answer: Its value is 99.11 nmol/mg protein/min.

Question: And the “effect on metabolism (MCR) of MH” value (CYP2C9 [2])?
Answer: Its value is “no obvious inhibitory effects”.

Question: And the “effect on metabolism (MCR) of MH” value (CYP2D6 [3])?
Answer: The value was “no obvious inhibitory effects”.

Question: And the “effect on metabolism (MCR) of MH” value (CYP3A4 [4])?
Answer: The value was “no obvious inhibitory effects”.

Question: What about the IC50 (CYP2C9 [5]; CYP2C9, classification of Kong et al [23], read-out: inhibitor potency class by IC50) of the same molecule?
Answer: The IC50 was over 50 µM.

Question: And the IC50 (CYP2C9 [5]; HLMs, tolbutamide 100 µM, read-out: IC50)?
Answer: The IC50 was over 100 µM.

Question: What about the IC50 (CYP2D6 [6]; CYP2D6, classification of Kong et al [23], read-out: inhibitor potency class by IC50) of the same molecule?
Answer: The IC50 was over 50 µM.

Question: And the IC50 (CYP2D6 [6]; HLMs, metoprolol 7.5 µM, read-out: IC50)?
Answer: Its IC50 is over 100 µM.

Question: And the IC50 (CYP3A4 [7]; CYP3A4, classification of Kong et al [23], read-out: inhibitor potency class by IC50)?
Answer: The IC50 was over 50 µM.

Question: And the IC50 (CYP3A4 [7]; HLMs, midazolam 5 µM, read-out: IC50)?
Answer: Its IC50 is over 100 µM.

Question: What about the “amplitude of contractility in the longitudinal and circular jejunum muscles” value [8] of the same molecule?
Answer: The value was “increase the amplitude of contractility”.

Question: And the gastric emptying [9]?
Answer: Its gastric emptying is “significantly accelerated”.

Question: And the intestinal transit [9]?
Answer: Its intestinal transit is “significantly accelerated”.

Question: And the Km (CYP1A2 [10])?
Answer: The Km was 8 ± 1.6 µM.

Question: What about the “Vmax of MH metabolism” value (CYP1A2 [10]) of the same molecule?
Answer: The value was 112.4±5.7 nmol/nmol P450/min.

Question: What about the “Vmax of MH metabolism” value (CYP1A2 [10]; listed as Meranzin hydrate) of the same molecule?
Answer: The value was 112.4 nmol/nmol P450/min.

Question: And the Km (CYP2C19 [11])?
Answer: The Km was 25.9 ± 6.6 µM.

Question: What about the “Vmax of MH metabolism” value (CYP2C19 [11]) of the same molecule?
Answer: Its value is 134.3±12.4 nmol/nmol P450/min.

Question: And the Km (CYP2C19 [11]; listed as Meranzin hydrate)?
Answer: The Km was 25.9 µM.

Question: And the “Vmax of MH metabolism” value (CYP2C19 [11]; listed as Meranzin hydrate)?
Answer: The value was 134.3 nmol/nmol P450/min.

Question: And the “MCR of MH, % of that of the control” value (CYP1A2 [12]; recombinant CYP1A2, MH 10 µM)?
Answer: The value was 43.5%.

Question: And the “MCR of MH, % of that of the control” value (CYP1A2 [12]; recombinant CYP1A2, MH 50 µM)?
Answer: Its value is 60.5%.

Question: And the “MCR of MH, % of that of the control” value (CYP2C19 [13]; recombinant CYP2C19, MH 10 µM)?
Answer: Its value is 68.5%.

Question: And the “MCR of MH, % of that of the control” value (CYP2C19 [13]; recombinant CYP2C19, MH 50 µM)?
Answer: Its value is 80.5%.

Question: What about the “metabolic clearance rate (MCR) of MH, % of that of the control” value (CYP1A2 [14]) of the same molecule?
Answer: The value was 29.1±7.2% and 29.1%.

Question: And the “metabolic clearance rate (MCR) of MH, % of that of the control” value (CYP2C19 [15])?
Answer: The value was 41.3±11.1% and 41.3%.

Question: And the type of inhibition (CYP1A2 [16]; CYP1A2, HLMs, Dixon / Lineweaver-Burk plots)?
Answer: The type of inhibition was “competitive”.

Question: What about the “IC50 of MH relative to that of FUR” value (CYP1A2 [16]; CYP1A2, phenacetin O-deethylation, HLMs, higher than FUR) of the same molecule?
Answer: The value was 3.2 fold.

Question: And the “Ki of MH relative to that of FUR” value (CYP1A2 [16]; CYP1A2, phenacetin O-deethylation, higher than FUR)?
Answer: Its value is “approximately 1.5 fold”.

Question: And the IC50 (CYP1A2 [16]; CYP1A2, classification of Kong et al [23], read-out: inhibitor potency class by IC50)?
Answer: Its IC50 is under 10 µM.

Question: What about the IC50 (CYP1A2 [16]; HLMs, phenacetin 10 µM, brackets = 95% confidence interval, read-out: IC50) of the same molecule?
Answer: The IC50 was 4.47 µM.

Question: And the Ki (CYP1A2 [16]; HLMs, phenacetin 3 to 100 µM, MH 0 to 100 µM)?
Answer: The Ki was 4.56 µM.

Question: What about the type of inhibition (CYP2C19 [17]; CYP2C19, HLMs, Dixon / Lineweaver-Burk plots) of the same molecule?
Answer: The type of inhibition was “competitively; also recorded: full competitive inhibition”.

Question: What about the IC50 (CYP2C19 [17]; CYP2C19, classification of Kong et al [23], read-out: inhibitor potency class by IC50) of the same molecule?
Answer: Its IC50 is 10 to 50 µM.

Question: And the Ki (CYP2C19 [17]; HLMs, S-mephenytoin 15 to 120 µM, MH 0 to 100 µM)?
Answer: Its Ki is 42.6 µM.

Question: With `Cc1ncsc1CCCl` [CHL, chlormethiazole hydrochloride] as the molecule, how does the Ki (CYP2E1; read-out: Ki, specific inhibitor reported value, CYP2E1) read?
Answer: The Ki was 12 µM.
